# Square brackets hold non-standard residues; d marks the D form. Peptide text beside a SMILES is read from it. * marks the point of attachment. X2 = O=C(NCCN1C(=O)CC(*)C1=O)c1ccc(C(=O)O)c(-c2c3ccc(=O)cc-3oc3cc(O)ccc23)c1; X1 = O=C(O)c1ccc(C(=O)*)cc1-c1c2ccc(=O)cc-2oc2cc(O)ccc12
# Columns and labels:
# sciatic nerve = experiment: Fluorescence contrast in murine nerves: in vivo imaging of sciatic nerve after intravenous injection; set-up: species or system mouse; conditions: for N/B contrast compared to the equivalent NDMs comprising L-amino acids / N/S contrast compared to the equivalent NDMs comprising L-amino acids: retro-inverso (D-amino acids) versus NDM-39, NDM-41
# Procedure: The visualization contrast activity of fluorescent peptides for nerve imaging was assessed using male immunocompetent hairless SKH1-E mice purchased from Charles River (Charles River, Wilmington, Mass. 01887, USA). SKH1-E mice weighing 25-30 grams were housed in group of 4 in individually ventilated IVC disposable cages (Innovive, Inc., San Diego, Calif. 92121, USA) and maintained under controlled environmental conditions (12-h/12-h light/dark cycle; temperature of 64-79F and relative humidity of 30-70%) for at least 5 days before experimental use. Animals had free access to standard laboratory rodent diet (Cat. #2018, Teklad Global 18% Protein Rodent Diet; Harlan Laboratories, Inc. Indianapolis, Ind. 46250, USA) and acidified drinking water throughout the course of study. All experiments were carried out under Institutional Animal Care and Use Committee (IACUC) approved protocol.
# On the day of study, each involved mouse was weighed, examined for general condition and restrained using a rotating tail injector (Cat. #RTI, Braintree Scientific, Braintree, Mass. 021585, USA) for intravenous (tail vein) injection of test compound in conscious animal. The test compounds were tested (25-150 nmol in 0.1 mL/mouse) was then injected intravenously in mouse using a 28G1/2 Insulin syringe (Cat. #14-826-79, Becton Dickinson and Company, Franklin Lakes, N.J. 07417, USA). After the intravenous injection, each involved mouse was housed back in its assigned cage and kept under controlled environmental conditions before being examined for fluorescence labeling of the sciatic nerve.
# Two hours after the intravenous injection, each involved mouse was terminally anesthetized with a mixture of ketamine HCl (Zetamine™, 100 mg/mL, ANADA 200-055 approved by FDA, NDC-13985-702-10; VETone®, Boise, Id. 83705, USA) and xylazine (Rompun™, 100 mg/mL, NADA-047-956 approved by FDA, Bayer HealthCare, LLC, Animal Health Divison, KS 66201, USA) which consisted of a combination of 100 mg/kg of ketamine with 10 mg/kg of xylazine administered intraperitoneally. The terminally anesthetized mouse was transferred on the piece of cork (4×4 inches, Quartet®, ACCO Brands, Lincolnshire, Ill. 60069, USA) for blunt dissection of sciatic nerve after checking the toe pinch reflex. The sciatic nerve was exposed by removing skin from the dorsal surface of the thigh and blunt dissecting the muscles parallel and posterior to the femur after checking […] (no reflex to toe pinch) in terminally anesthetized mouse. Full body imaging of the terminally anesthetized mouse with both sciatic nerves exposed was then performed using a computerized UVP BioSpectrum® 500 Imaging System fitted with appropriate excitation/emission filters for fluorescein, Cy5, or other dye detection and a VisionWorks® LS Software (UVP-BioSpectrum Imaging System, Upland, Calif., USA) for image acquisition and analysis. After the mouse full body imaging, the exposed and saline moisturized sciatic nerves were subsequently imaged using computerized fluorescence stereomicroscope (SZX 10, Olympus Optical, CO, LTD, Japan) interfaced with PictureFrame™, an image processing application suitable for image acquisition and analysis (Optronics, Goleta, Calif. 93117) or an in-house built Microscope Imaging System interfaced with Spot Software 5.0 (SPOT Imaging Solutions, Sterling Heights, Mich. 48314) for image acquisition and analysis. All above-mentioned Imaging Systems were equipped with appropriate excitation/emission filters for fluorescein, Cy5, or other dye detection. Following the imaging session, all captured images of fluorescently labeled sciatic nerves were examined and analyzed using the image processing program Image J to generate quantitative fluorescence data. For each involved mouse, fluorescence intensity of each examined sciatic nerve was acquired by drawing an area on the surface of the exposed sciatic nerve using Image J features and capabilities. […]
# [1] = test system: dorsal subcutaneous cervical or thoracic nerves; experiment: In vivo fluorescence imaging of dorsal subcutaneous cervical and thoracic nerves (FIG. 2, FIG. 3); set-up: species or system mouse; conditions: FIG. 2 and FIG. 3, fluorescence versus reflected light images
# Description: (§1) Nerves are more clearly visualized utilizing NDM-38.
# splanchic nerve = experiment: In vivo fluorescence imaging of splanchnic nerve (FIG. 4); conditions: FIG. 4, mouse, fluorescence versus reflected light images
# Description: as §1
# renal nerve = experiment: In vivo fluorescence imaging of renal nerve (FIG. 5); set-up: species or system mouse; conditions: FIG. 5, fluorescence versus reflected light images
compound,measurement,setting,value
"CC(=O)N[C@H](CCCCNC(=O)c1ccc(C(=O)O)c(-c2c3ccc(=O)cc-3oc3cc(O)ccc23)c1)C(=O)N[C@H](C)C(=O)N[C@H](C)C(=O)N[C@H](C)C(=O)N[C@@H](C(=O)N[C@H](Cc1c[nH]cn1)C(=O)N[C@H](CCC(=O)O)C(N)=O)[C@H](C)O [NDM-38, Ac-[D-Lys(6FAM)]-(D-Ala)-(D-Ala)-(D-Ala)-(D-Thr)-(D-His)-(D-Glu)-NH2] (Ac-[dK](X1)[dA][dA][dA][dT][dH][dE]-NH2)",N/B contrast relative to NDMs with glycine linkers,sciatic nerve; alanine linker versus NDM-44,higher
same,N/S contrast relative to NDMs with glycine linkers,sciatic nerve; alanine linker versus NDM-44,higher
same,N/B contrast compared to the equivalent NDMs comprising L-amino acids,sciatic nerve,substantially higher
same,N/S contrast compared to the equivalent NDMs comprising L-amino acids,sciatic nerve,substantially higher
same,fluorescence contrast (nerve/background) of mouse dorsal subcutaneous cervical or thoracic nerves,[1],very high fluorescence contrast
same,fluorescence contrast (nerve/background) of splanchic nerve,splanchic nerve,very high fluorescence contrast
same,fluorescence contrast (nerve/background) of mouse renal nerve,renal nerve,very high fluorescence contrast
"CC(=O)N[C@H](CSC1CC(=O)N(CCNC(=O)c2ccc(C(=O)O)c(-c3c4ccc(=O)cc-4oc4cc(O)ccc34)c2)C1=O)C(=O)N[C@H](C)C(=O)N[C@H](C)C(=O)N[C@H](C)C(=O)N[C@@H](C(=O)N[C@H](Cc1c[nH]cn1)C(=O)N[C@H](CCC(=O)O)C(N)=O)[C@H](C)O (stereo partly drawn) [NDM-40, Ac-[D-Cys(6FAM)]-(D-Ala)-(D-Ala)-(D-Ala)-(D-Thr)-(D-His)-(D-Glu)-NH2] (Ac-[dC](X2)[dA][dA][dA][dT][dH][dE]-NH2)",fluorescence contrast (nerve/background) of mouse sciatic nerve,"sciatic nerve; FIG. 1, fluorescence versus reflected light images",very high fluorescence contrast
same,N/B contrast compared to the equivalent NDMs comprising L-amino acids,sciatic nerve,substantially higher
same,N/S contrast compared to the equivalent NDMs comprising L-amino acids,sciatic nerve,substantially higher
